The record followed here is patent US20180133221A1, “ADMINISTRATION OF UBIQUITIN-ACTIVATING ENZYME INHIBITOR AND CHEMOTHERAPEUTIC AGENTS” (Millennium Pharmaceuticals, Inc., priority 2014, published 2018).

SMILES strings stand for the structures. Read-outs that look alike come from different tables or passages of the source.

Series [1] concerns CTG-0256 human ovarian xenograft. The series can be described thus: CTG-0256 xenograft model, Compound 1 and carboplatin. Particulars: for Volume Tumor Day 14: in mm³ (unit assumed). The format is in vivo, Mus musculus/nu/nu mice. An excerpt:
The CTG-0256 model of human ovarian xenograft model was established from a patient-derived tumor collected during surgery at primary site from a person with ovarian cancer (serous adenocarcinoma with resistant response to carboplatin or paclitaxel). CTG-0256 tumor fragments (approximately 2×2×3 mm^3) were implanted into the subcutaneous space in the right dorsal flank of female Mus musculus/nu/nu mice (age 6-9 weeks, Harlan Laboratories, Madison, Wis.) using a 13-gauge trocar. When the mean tumor volume reached approximately 150 mm^3, the animals were randomized into 7 treatment groups (n=7/group).
Carboplatin (Teva Pharmaceuticals) is formulated in 0.9% saline and administered by IP injection once weekly (QW) at 25, 50, 60, and 75 mg/kg. The once weekly schedule is also described as every 7 days (Q7D).
(§1) Compound 1 [((1R,2R,3S,4R)-2,3-dihydroxy-4-(2-(3-(trifluoromethylthio)-phenyl)pyrazolo[1,5-a]pyrimidin-7-ylamino)cyclopentyl)methyl sulfamate] is formulated in 10-20% HPbCD in sterile water and administered intravenously (IV) or subcutaneously (SC) on a BIW (twice/week schedule; Monday and Thursday or Tuesday and Friday) for either 2-4 weeks.
(§2) Tumors were measured twice weekly using vernier calipers. Tumor volumes were calculated using the standard formula V=W^2×L/2,). When mean tumor volumes reached approximately 200 mm^3 for PHTX-24C, 220 mm^3 for PHTX-Lu132, 150 mm^3 for CTG-0256, 260 mm^3 for CTG-0486, 185 mm^3 for PHTX-17C, 260 mm^3 for CTG-0165, 150 mm^3 for PHTX-14B in the study of Compound 1 and paclitaxel, 180 mm^3 for PHTX-14B in the study of Compound 1 and docetaxel, 200 mm^3 for SKOV-3, 220 mm^3 for PHTX-02B in the study of Compound 1 and docetaxel, 250 mm^3 for PHTX-02B in the study of Compound 1 and paclitaxel, 195 mm^3 for CTG-0159, 180 mm^3 for CTG-0012 or 150 mm^3 for Calu-6, mice were randomized into groups of n=5-7/arm as described in the tables below, and injected with vehicle, Compound 1 or agents (docetaxel, paclitaxel, oxaliplatin, cisplatin or carboplatin), or the combination of Compound 1 plus one of the agents, at various doses and schedules as described in tables below. Tumor size and body weight were measured approximately twice a week for the duration of the study. Mice are euthanized when their tumor volume reached 10% of their body weight, or when the average tumor volume of a treatment or control group reached approximately 2000 mm^3. Tumor growth continued to be monitored after the dosing period in some studies. Average tumor volume is reported as a function of time for selected arms of selected studies in the Figures.
(§3) Measurements from day 0 to day 14, day 19, day 21, or day 28 are analyzed as specified in Tables below. All tumor volumes have a value of 1 added to them before log10 transformation. For each animal, the log tumor volume at day 0 is subtracted from the log tumor volume on the subsequent days. This difference vs. time is used to calculate an area under the curve (AUC) for each animal using the trapezoid rule. […] The synergy score for the combination of agents A and B is defined as
(§4) 100*(mean(AUCAB)−mean(AUCA)−mean(AUCB)+mean(AUCctl))/mean(AUCctl):
(§5) where AUCAB, AUCA, AUCB, and AUCctl are the AUC values for animals in the combination group, the A group, the B group, and the control group, respectively. The standard error of the synergy score is computed based on the variation in the AUC values among the animals. […] If the P-value is above 0.05, then the combination is considered to be additive. If the P-value is below 0.05, and the synergy score is less than zero, then the combination is considered to be synergistic.

The test system of series [2] is PHTX-02B breast xenograft. Briefly: PHTX-02B xenograft model, Compound 1 and paclitaxel. Type of series: in vivo, SCID-NOD mice. On the procedure: Paclitaxel (Bristol-Myers Squibb Company) is formulated in 0.9% saline and administered by intravenous injection (IV) on every 4 days (Q4D) or once weekly (QW) at 10 and 20 mg/kg. […] Tumors were measured twice weekly using vernier calipers.

Series [3] concerns PHTX-14B breast xenograft. Briefly: PHTX-14B xenograft model, Compound 1 and docetaxel. Type of series: in vivo, nude mice. The following applies: for Tumor Volume Day 28: in mm³ (unit assumed). On the procedure: Docetaxel (Henry Schein, Inc., Pittsburgh Pa.) is formulated in 0.9% saline and administered by intravenous injection (IV) once weekly (QW) at 5 mg/kg or 10 mg/kg. […] Tumors were measured twice weekly using vernier calipers.

Series [4] has as its system CTG-0486 human ovarian xenograft. The format is in vivo. The following applies: for Tumor Volume Day 21: in mm³ (unit assumed).
From the text: The CTG-0486 model of human ovarian xenograft model was established from a patient-derived tumor collected during surgery from a person with ovarian cancer (serous adenocarcinoma, metastases to the small bowel). CTG-0486 tumor fragments (approximately 2×2×3 mm^3) are implanted into the subcutaneous space in the right dorsal flank of female Mus musculus/nu/nu mice (age 6-9 weeks, Harlan Laboratories, Madison, Wis., USA) using a 13-gauge trocar needle. When the mean tumor volume reached approximately 260 mm3, the animals were randomized into 8 treatment groups (n=5/group).
[…] The once weekly schedule is also described as every 7 days (Q7D).
as §1, §2, §3, §4, §5

Series [5] deals with Calu-6 non-small cell lung cancer xenograft. The series can be described thus: Calu-6 xenograft model, Compound 1 and docetaxel. Type of series: in vivo, nude mice. Particulars: for Tumor Volume Day 21: in mm³ (unit assumed). On the procedure:
Calu-6 is a non-small cell lung cancer cell-lined derived xenograft model. Nine week old female nude mice (Taconic Farms, Inc) were inoculated subcutaneously in the flank (cell suspension) with 4.0×10^6 Calu-6 cells suspended in serum free MEM. […] Docetaxel (Henry Schein, Inc., Pittsburgh Pa.) is formulated in 0.9% saline and administered by intravenous injection (IV) once weekly (QW) at 5 mg/kg or 10 mg/kg. […] Tumors were measured twice weekly using vernier calipers.

Turning to `NS(=O)(=O)OC[C@H]1C[C@@H](Nc2ccnc3cc(-c4cccc(SC(F)(F)F)c4)nn23)[C@H](O)[C@@H]1O` [Compound 1, ((1R,2R,3S,4R)-2,3-dihydroxy-4-(2-(3-(trifluoromethylthio)phenyl)pyrazolo[1,5-a]pyrimidin-7-ylamino)cyclopentyl)methyl sulfamate], the entries for the “Volume Tumor Day 14” value in series [1] (6.25 mg/kg Compound 1 BIWx2 IV), in series [1] (15 mg/kg Compound 1 BIWx2 IV) and in series [1] (20 mg/kg Compound 1 BIWx2 IV) were 1291.5, 1638.6 and 1406.7, respectively. Further, the “anti-tumor activity compared to vehicle control” value is listed as “modest to weak anti-tumor activity” in series [1] (single agent Compound 1 IV at 20, 15, 6.25 mg/kg BIW); “minimal to modest anti-tumor activity” in series [2] (single agent Compound 1 IV at 6.25, and 12.5 mg/kg BIW for 3 weeks); “modest to strong anti-tumor activity” in series [4] (single agent Compound 1 SC at 6.25, 15, 20 and 25 mg/kg BIW for 3 weeks). The “Tumor Volume Day 19” value in series [2] (6.25 mg/kg Compound 1 BIWx3 IV, in mm³ (unit assumed)) is recorded as 1850.4. Further, the “Tumor Volume Day 28” value in series [3] (10 mg/kg Compound 1 BIWx3 SC) came to 499.4; in series [3] (20 mg/kg Compound 1 BIWx3 SC) it was 399.4. The “tumor growth compared to the vehicle control group” value in series [3] (single agent Compound 1 SC at 20 and 10 mg/kg BIW) is on record as “inhibited tumor growth”. In addition, the “Tumor Volume Day 21” value in series [4] (6.25 mg/kg Compound 1 BIWx3 SC) is on record as 476.9; in series [4] (15 mg/kg Compound 1 BIWx3 SC), 131.9; in series [4] (20 mg/kg Compound 1 BIWx3 SC) it was 92.7; in series [4] (25 mg/kg Compound 1 BIWx3 SC), 151.7; in series [5] (5 mg/kg Compound 1 BIWx3 IV) it was 1302.2; in series [5] (10 mg/kg Compound 1 BIWx3 IV) it was 1346.4. In series [5] (15 mg/kg Compound 1 BIWx3 IV), the “Tumor Volume Day 21” value is on record as 1072.4. For the same compound, in series [4] (20 and 25 mg/kg doses of Compound 1, SC BIW), the tolerability entry is recorded as “not tolerated”. Also, the “anti-tumor responses compared to the vehicle control” value in series [5] (single agent Compound 1 IV at 5, 10 and 20 mg/kg IV BIW) was “modest anti-tumor responses”.
